pEC50: −log10 of the molar value. Read-outs that look alike come from different tables or passages of the source.
Biological target: human activated kallikrein enzyme (Homo sapiens (Human), UniProt P03952)
Experiment: Plasma kallikrein inhibition assay with fluorogenic peptide substrate, 500 pM activated kallikrein format
Assay type: biochemical
Settings: read-out: Primary Dose Response Assay: Average EC50
Description: Example compounds were evaluated for inhibition of the human activated kallikrein enzyme in two formats of an assay employing a fluorogenic peptide substrate. In one assay format, the concentrations of reagents were as follows: 20 mM Tris pH 7.5, 1 mM EDTA, 150 mM sodium chloride, 0.1% PEG-400, 0.1% Triton X-100, […], 300 uM Pro-Phe-Arg-7-amido-4-methylcoumarin substrate. Prior to reaction initiation with substrate, enzyme and inhibitors were preincubated for 30 min at RT. After initiation with substrate, reactions were incubated for 10 min at RT and fluorescence emission at 460 nm from 380 nm excitation measured with a microplate reader. In another assay format, the concentrations of reagents were as follows: 20 mM Tris pH 7.5, 1 mM EDTA, 150 mM sodium chloride, 0.1% PEG-400, 0.1% Triton X-100, 5 pM activated kallikrein enzyme, 300 uM Pro-Phe-Arg-7-amido-4-methylcoumarin substrate. Prior to reaction initiation with substrate, enzyme and inhibitors were preincubated for 30 min at RT. After initiation with substrate, reactions were incubated for 18 h at RT and fluorescence emission at 460 nm from 380 nm excitation measured with a microplate reader.
Table II provides the results of the assay in the format with 500 pM activated kallikrein assay.
Table III provides comparative plasma kallikrein inhibition potency in the assay format with 500 pM activated kallikrein assay (described in detail in the preceding example).

[1] = comparative compounds (Table III), 500 pM activated kallikrein format
[2] = 500 pM activated kallikrein, 300 uM Pro-Phe-Arg-7-amido-4-methylcoumarin substrate, 30 min preincubation, 10 min reaction at RT

Sequence of human activated kallikrein enzyme (P03952 391-638): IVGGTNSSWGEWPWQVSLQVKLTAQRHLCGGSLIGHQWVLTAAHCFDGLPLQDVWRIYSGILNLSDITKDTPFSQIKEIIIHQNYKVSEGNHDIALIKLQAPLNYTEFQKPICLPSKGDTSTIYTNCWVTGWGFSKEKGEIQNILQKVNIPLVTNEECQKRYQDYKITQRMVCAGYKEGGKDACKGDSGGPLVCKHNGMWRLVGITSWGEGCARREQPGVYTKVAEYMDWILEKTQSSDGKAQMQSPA
Sequence of human activated kallikrein enzyme (P03952 20-390 partner): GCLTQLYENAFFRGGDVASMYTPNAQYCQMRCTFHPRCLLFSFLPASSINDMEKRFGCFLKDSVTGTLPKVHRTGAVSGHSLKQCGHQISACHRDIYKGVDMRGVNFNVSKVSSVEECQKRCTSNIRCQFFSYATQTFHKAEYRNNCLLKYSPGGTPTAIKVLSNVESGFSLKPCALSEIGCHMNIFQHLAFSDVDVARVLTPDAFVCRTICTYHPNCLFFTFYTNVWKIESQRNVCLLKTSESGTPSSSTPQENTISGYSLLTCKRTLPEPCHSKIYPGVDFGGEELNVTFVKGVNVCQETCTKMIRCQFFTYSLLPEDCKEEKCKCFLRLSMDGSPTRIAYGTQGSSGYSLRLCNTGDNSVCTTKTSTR

**Q.** With `O=C(NCc1ncn2ccc(Cl)c(F)c12)c1cn(Cc2ccc3nccnc3c2)nn1` as the compound, how does the pEC50 [1] read?
**A.** Its pEC50 is 7.00 to 8.00.

**Q.** `O=C(NCc1ncn2ccc(Cl)c(F)c12)c1cn(Cc2cn3ccccc3n2)nn1` was tested. Which pEC50 [1] did it give?
**A.** Its pEC50 is 7.00 to 8.00.

**Q.** `NC(=O)c1cnn(Cc2cn3cc(C4CC4)ccc3n2)c1` was tested. Which pEC50 [1] did it give?
**A.** The pEC50 was < 5.15.

**Q.** `COc1ccc(-n2cc(Cl)nn2)c(CNC(=O)c2cn(Cc3cn4cc(C5CC5)ccc4n3)nn2)c1F` [Example I-1, N-(6-(4-chloro-1H-1,2,3-triazol-1-yl)-2-fluoro-3-methoxybenzyl)-1-((6-cyclopropylimidazo[1,2-a]pyridin-2-yl)methyl)-1H-1,2,3-triazole-4-carboxamide] was tested. Which pEC50 [2] did it give?
**A.** Its pEC50 is ≥ 9.00.

**Q.** How did the pEC50 [2] turn out when `COc1ccc(-n2cnnn2)c(CNC(=O)c2cc3n(n2)CCC3c2cn3cc(C4CC4)ccc3n2)c1F` (stereo not shown) [Example I-2, 4-(6-cyclopropylimidazo[1,2-a]pyridin-2-yl)-N-(2-fluoro-3-methoxy-6-(1H-tetrazol-1-yl)benzyl)-5,6-dihydro-41-pyrrolo[1,2-b]pyrazole-2-carboxamide] was run?
**A.** Its pEC50 is 8.00 to 9.00.

**Q.** With `O=C(NCc1cc(Cl)ccc1-n1cc(Cl)nn1)c1cn(Cc2cn3cc(C4CC4)ccc3n2)nn1` [Example I-3, N-(5-chloro-2-(4-chloro-1H-1,2,3-triazol-1-yl)benzyl)-1-((6-cyclopropylimidazo[1,2-a]pyridin-2-yl)methyl)-1H-1,2,3-triazole-4-carboxamide] as the compound, how does the pEC50 [2] read?
**A.** Its pEC50 is 7.00 to 8.00.

**Q.** `COc1ccc(-n2cnnn2)c(CNC(=O)c2nc3n(n2)CCC3c2cn3cc(C4CC4)ccc3n2)c1F` (stereo not shown) [Example I-4, 7-(6-cyclopropylimidazo[1,2-a]pyridin-2-yl)-N-(2-fluoro-3-methoxy-6-(1H-tetrazol-1-yl)benzyl)-6,7-dihydro-5H-pyrrolo[1,2-b][1,2,4]triazole-2-carboxamide] was tested. Which pEC50 [2] did it give?
**A.** The pEC50 was 8.00 to 9.00.

**Q.** With `COc1ccnc(CNC(=O)c2cn3c(n2)CCC3c2cn3cc(C4CC4)ccc3n2)c1F` (stereo not shown) [Example I-5, 5-(6-cyclopropylimidazo[1,2-a]pyridin-2-yl)-N-((3-fluoro-4-methoxypyridin-2-yl)methyl)-6,7-dihydro-5H-pyrrolo[1,2-a]imidazole-2-carboxamide] as the compound, how does the pEC50 [2] read?
**A.** The pEC50 was 7.00 to 8.00.

**Q.** How did the pEC50 [2] turn out when `COc1ccnc(CNC(=O)c2cnc3n2C(c2cn4cc(C5CC5)ccc4n2)CC3)c1F` (stereo not shown) [Example I-6, 5-(6-cyclopropylimidazo[1,2-a]pyridin-2-yl)-N-((3-fluoro-4-methoxypyridin-2-yl)methyl)-6,7-dihydro-5H-pyrrolo[1,2-a]imidazole-3-carboxamide] was run?
**A.** Its pEC50 is < 5.15.

**Q.** With `COc1ccnc(CNC(=O)c2cn(Cc3cn4cc(C5CC5)ccc4n3)nn2)c1F` [Example I-7, 1-((6-cyclopropylimidazo[1,2-a]pyridin-2-yl)methyl)-N-((3-fluoro-4-methoxypyridin-2-yl)methyl)-1H-1,2,3-triazole-4-carboxamide] as the compound, how does the pEC50 [2] read?
**A.** Its pEC50 is 7.00 to 8.00.

**Q.** With `COc1ccc(F)c(CNC(=O)c2cn(Cc3cn4cc(C5CC5)cc(COCCN(C)C)c4n3)nn2)c1F` [Example I-8, 1-((6-cyclopropyl-8-((2-(dimethylamino)ethoxy)methyl)imidazo[1,2-a]pyridin-2-yl)methyl)-N-(2,6-difluoro-3-methoxybenzyl)-1H-1,2,3-triazole-4-carboxamide] as the compound, how does the pEC50 [2] read?
**A.** Its pEC50 is 8.00 to 9.00.

**Q.** How did the pEC50 [2] turn out when `COc1ccc(-n2cnnn2)c(CNC(=O)c2cn3c(n2)OCC3c2cn3cc(C4CC4)ccc3n2)c1F` (stereo not shown) [Example I-9, 3-(6-cyclopropylimidazo[1,2-a]pyridin-2-yl)-N-(2-fluoro-3-methoxy-6-(1H-tetrazol-1-yl)benzyl)-2,3-dihydroimidazo[2,1-b]oxazole-6-carboxamide] was run?
**A.** The pEC50 was 7.00 to 8.00.

**Q.** With `NCc1cc(C2CC2)cn2cc(Cn3cc(C(=O)NC4CCc5c4ccnc5N)nn3)nc12` (stereo not shown) [Example I-10, N-(1-amino-6,7-dihydro-5H-cyclopenta[c]pyridin-5-yl)-1-((8-(aminomethyl)-6-cyclopropylimidazo[1,2-a]pyridin-2-yl)methyl)-1H-1,2,3-triazole-4-carboxamide] as the compound, how does the pEC50 [2] read?
**A.** Its pEC50 is ≥ 9.00.

**Q.** How did the pEC50 [2] turn out when `O=C(NCc1cc2c(Cl)nccc2s1)c1cn(Cc2cn3cc(C4CC4)ccc3n2)nn1` [Example I-11, N-((4-chlorothieno[3,2-c]pyridin-2-yl)methyl)-1-((6-cyclopropylimidazo[1,2-a]pyridin-2-yl)methyl)-1H-1,2,3-triazole-4-carboxamide] was run?
**A.** The pEC50 was < 5.15.

**Q.** How did the pEC50 [2] turn out when `COc1ccc(F)c(CNC(=O)c2cn(Cc3cn4cc(C5CC5)cc(CC(C)(C)C#N)c4n3)nn2)c1F` [Example I-12, 1-((8-(2-cyano-2-methylpropyl)-6-cyclopropylimidazo[1,2-a]pyridin-2-yl)methyl)-N-(2,6-difluoro-3-methoxybenzyl)-1H-1,2,3-triazole-4-carboxamide] was run?
**A.** Its pEC50 is 8.00 to 9.00.

**Q.** How did the pEC50 [2] turn out when `COc1ccc(F)c(CNC(=O)c2cn(Cc3cn4cc(C5CC5)cc(CN)c4n3)nn2)c1F` [Example I-13, 1-((8-(aminomethyl)-6-cyclopropylimidazo[1,2-a]pyridin-2-yl)methyl)-N-(2,6-difluoro-3-methoxybenzyl)-1H-1,2,3-triazole-4-carboxamide] was run?
**A.** The pEC50 was 8.00 to 9.00.

**Q.** With `N#Cc1cc(C2CC2)cn2cc(Cn3cc(C(=O)NC4CCc5c4ccnc5N)nn3)nc12` (stereo not shown) [Example I-14, N-(1-amino-6,7-dihydro-5H-cyclopenta[c]pyridin-5-yl)-1-((8-cyano-6-cyclopropylimidazo[1,2-a]pyridin-2-yl)methyl)-1H-1,2,3-triazole-4-carboxamide] as the compound, how does the pEC50 [2] read?
**A.** The pEC50 was 8.00 to 9.00.

**Q.** With `COc1ccc(-n2cnnn2)c(CNC(=O)c2c(C)nn(Cc3cn4cc(C5CC5)ccc4n3)c2C)c1F` [Example I-15, 1-((6-cyclopropylimidazo[1,2-a]pyridin-2-yl)methyl)-N-(2-fluoro-3-methoxy-6-(1H-tetrazol-1-yl)benzyl)-3,5-dimethyl-1H-pyrazole-4-carboxamide] as the compound, how does the pEC50 [2] read?
**A.** The pEC50 was 5.70 to 7.00.

**Q.** How did the pEC50 [2] turn out when `Cc1cc2c(c(N)n1)CCC2NC(=O)c1cn(Cc2cn3cc(C4CC4)ccc3n2)nn1` (stereo not shown) [Example I-16, N-(1-amino-3-methyl-6,7-dihydro-5H-cyclopenta[c]pyridin-5-yl)-1-((6-cyclopropylimidazo[1,2-a]pyridin-2-yl)methyl)-1H-1,2,3-triazole-4-carboxamide] was run?
**A.** The pEC50 was ≥ 9.00.

**Q.** `COc1ccc(-n2cnnn2)c(CNC(=O)c2cn(Cc3cn4cc(C5CC5)cc(COCCN)c4n3)nn2)c1F` [Example I-17, 1-((8-((2-aminoethoxy)methyl)-6-cyclopropylimidazo[1,2-a]pyridin-2-yl)methyl)-N-(2-fluoro-3-methoxy-6-(1H-tetrazol-1-yl)benzyl)-1H-1,2,3-triazole-4-carboxamide] was tested. Which pEC50 [2] did it give?
**A.** The pEC50 was ≥ 9.00.

**Q.** How did the pEC50 [2] turn out when `Nc1ncc(CNC(=O)c2cn(Cc3cn4cc(C5CC5)ccc4n3)nn2)s1` [Example I-18, N-((2-aminothiazol-5-yl)methyl)-1-((6-cyclopropylimidazo[1,2-a]pyridin-2-yl)methyl)-1H-1,2,3-triazole-4-carboxamide] was run?
**A.** The pEC50 was 5.70 to 7.00.

**Q.** `Nc1nnc(CNC(=O)c2cn(Cc3cn4cc(C5CC5)ccc4n3)nn2)o1` [Example I-19, N-((5-amino-1,3,4-oxadiazol-2-yl)methyl)-1-((6-cyclopropylimidazo[1,2-a]pyridin-2-yl)methyl)-1H-1,2,3-triazole-4-carboxamide] was tested. Which pEC50 [2] did it give?
**A.** The pEC50 was 5.15 to 5.70.

**Q.** With `Nc1nnc(CNC(=O)c2cn(Cc3cn4cc(C5CC5)ccc4n3)nn2)s1` [Example I-20, N-((5-amino-1,3,4-thiadiazol-2-yl)methyl)-1-((6-cyclopropylimidazo[1,2-a]pyridin-2-yl)methyl)-1H-1,2,3-triazole-4-carboxamide] as the compound, how does the pEC50 [2] read?
**A.** Its pEC50 is 5.15 to 5.70.

**Q.** `Nc1nnc(CNC(=O)c2cn(Cc3cn4cc(C5CC5)ccc4n3)nn2)[nH]1` [Example I-21, N-((5-amino-4H-1,2,4-triazol-3-yl)methyl)-1-((6-cyclopropylimidazo[1,2-a]pyridin-2-yl)methyl)-1H-1,2,3-triazole-4-carboxamide] was tested. Which pEC50 [2] did it give?
**A.** Its pEC50 is 5.15 to 5.70.

**Q.** How did the pEC50 [2] turn out when `COc1ccc(-n2cnnn2)c(CNC(=O)c2cn3c(n2)CCC3c2cn3cc(C4CC4)ccc3n2)c1F` (stereo not shown) [Example I-22, 5-(6-cyclopropylimidazo[1,2-a]pyridin-2-yl)-N-(2-fluoro-3-methoxy-6-(1H-tetrazol-1-yl)benzyl)-6,7-dihydro-5H-pyrrolo[1,2-a]imidazole-2-carboxamide] was run?
**A.** The pEC50 was ≥ 9.00.

**Q.** How did the pEC50 [2] turn out when `Nc1nccc2c1CCC2NC(=O)c1cn(Cc2cn3cc(C4CC4)ccc3n2)nn1` (stereo not shown) [Example I-23, N-(1-amino-6,7-dihydro-5H-cyclopenta[c]pyridin-5-yl)-1-((6-cyclopropylimidazo[1,2-a]pyridin-2-yl)methyl)-1H-1,2,3-triazole-4-carboxamide] was run?
**A.** Its pEC50 is ≥ 9.00.

**Q.** How did the pEC50 [2] turn out when `COc1ccc(-n2cnnn2)c(CNC(=O)c2cnc3n2C(c2cn4cc(C5CC5)ccc4n2)CC3)c1F` (stereo not shown) [Example I-24, 5-(6-cyclopropylimidazo[1,2-a]pyridin-2-yl)-N-(2-fluoro-3-methoxy-6-(1H-tetrazol-1-yl)benzyl)-6,7-dihydro-5H-pyrrolo[1,2-a]imidazole-3-carboxamide] was run?
**A.** The pEC50 was 5.15 to 5.70.

**Q.** `COc1ccc(-n2cnnn2)c(CNC(=O)c2cn(Cc3cn4cc(C5CC5)cc(CN)c4n3)nn2)c1F` [Example I-25, 1-((8-(aminomethyl)-6-cyclopropylimidazo[1,2-a]pyridin-2-yl)methyl)-N-(2-fluoro-3-methoxy-6-(1H-tetrazol-1-yl)benzyl)-1H-1,2,3-triazole-4-carboxamide] was tested. Which pEC50 [2] did it give?
**A.** The pEC50 was ≥ 9.00.
